US20090215812A1, “BIOMARKERS FOR EVALUATING LIKELIHOOD OF TUMOR SENSITIVITY TO AN MTOR INHIBITOR” (ARIAD GENE THERAPEUTICS, INC., priority 2005, published 2009)

How the values were obtained:
AN3CA = assay: in vitro proliferation assay (CellTiter 96 Aqueous One Solution); type: cell-based, human; conditions: average of 10, 33 and 100 nM, 3 days incubation, relative to untreated wells
Protocol: (§1) A series of in vitro proliferation assays were performed on 14 human tumor-derived cell lines exposed to AP23573 at concentrations ranging from 0.01 nM to […]. Cells were plated into 96-well plates (between 750 and 5000 cells per well as per the table below), in cell culture medium containing serial dilutions of AP23573, or in the absence of AP23573 as a control, and were then incubated for 3 days.
(§2) At the end of the incubation, the number of cells in each well (cell viability) was determined using a CellTiter 96® Aqueous One Solution Cell Proliferation metabolic activity assay kit (Promega). This assay is based on the use of a reagent that monitors the total reducing environment of a population of cells. The quantity of reduced products, which is determined spectrophotometrically, is directly proportional to the number of viable cells in the culture. The percentage of cells remaining after treatment with each concentration of AP23573 was then determined relative to the number of cells remaining in the untreated wells.
(§3) For each cell line the percentage cells remaining after treatment with AP23573 reached a plateau between 1 and 10 nM. Thus the inhibitory effect of AP23573 on cell proliferation was calculated by taking the average of the percentage of cells remaining at the 10, 33 and 100 nM concentration levels. A lower percentage of cells remaining reflects a larger inhibitory effect of AP23573. The experiment was performed two or three times for each cell line and the results averaged.

BT474 = assay: as above; type: cell-based, human; conditions: average of 10, 33 and 100 nM, 3 days incubation, relative to untreated wells
Protocol: as §1, §2, §3

DU145 = assay: as above; type: cell-based, human; conditions: average of 10, 33 and 100 nM, 3 days incubation, relative to untreated wells
Protocol: as §1, §2, §3

ES2 = assay: as above; type: cell-based, human; conditions: average of 10, 33 and 100 nM, 3 days incubation, relative to untreated wells
Protocol: as §1, §2, §3

HCT116 = assay: as above; type: cell-based, human
Protocol: as §1, §2, §3

HEC1A = assay: as above; type: cell-based, human; conditions: average of 10, 33 and 100 nM, 3 days incubation, relative to untreated wells
Protocol: as §1, §2, §3

HT1080 = assay: as above; type: cell-based, human
Protocol: as §1, §2, §3

MCF7 = assay: as above; type: cell-based, human; conditions: average of 10, 33 and 100 nM, 3 days incubation, relative to untreated wells
Protocol: as §1, §2, §3

MDA-435S = assay: as above; type: cell-based, human; conditions: average of 10, 33 and 100 nM, 3 days incubation, relative to untreated wells
Protocol: as §1, §2, §3

MDA-453 = assay: as above; type: cell-based, human; conditions: average of 10, 33 and 100 nM, 3 days incubation, relative to untreated wells
Protocol: as §1, §2, §3

MDA-468 = assay: as above; type: cell-based, human; conditions: average of 10, 33 and 100 nM, 3 days incubation, relative to untreated wells
Protocol: as §1, §2, §3

PC3 = assay: as above; type: cell-based, human; conditions: average of 10, 33 and 100 nM, 3 days incubation, relative to untreated wells
Protocol: as §1, §2, §3

SKBR3 = assay: as above; type: cell-based, human; conditions: average of 10, 33 and 100 nM, 3 days incubation, relative to untreated wells
Protocol: as §1, §2, §3

SKOV3 = assay: as above; type: cell-based, human; conditions: average of 10, 33 and 100 nM, 3 days incubation, relative to untreated wells
Protocol: as §1, §2, §3

[1] = tested on: 14 human tumor-derived cell lines; assay: in vitro proliferation assays on panel of tumor cell lines; type: cell-based
Protocol: as §1, §2
For each cell line the percentage cells remaining after treatment with AP23573 reached a plateau between 1 and 10 nM. Thus the inhibitory effect of AP23573 on cell proliferation was calculated by taking the average of the percentage of cells remaining at the 10, 33 and 100 nM concentration levels. […]

sarcoma = assay: ongoing clinical trial of AP23573 in sarcoma; type: in vivo, human; conditions: number of patients
Description: The experiment is repeated several times using either mixed sets of samples that included samples from tumors of various types or using sets of samples from a single tumor type (prostate cancer, leiomyosarcoma, osteosarcoma). Some of the samples are obtained from an ongoing clinical trial of AP23573 in sarcoma, results of which are presented below: […]

[2] = average of 10, 33 and 100 nM, 3 days incubation, relative to untreated wells

## CO[C@H]1C[C@@H]2CC[C@@H](C)[C@@](O)(O2)C(=O)C(=O)N2CCCC[C@H]2C(=O)O[C@H]([C@H](C)C[C@@H]2CC[C@@H](OP(C)(C)=O)[C@H](OC)C2)CC(=O)[C@H](C)/C=C(\C)[C@@H](O)[C@@H](OC)C(=O)[C@H](C)C[C@H](C)/C=C/C=C/C=C/1C [AP23573]
AN3CA
  Percent Cells Remaining: 45%
BT474
  Percent Cells Remaining: 80%
DU145
  Percent Cells Remaining: 81%
ES2
  Percent Cells Remaining: 63%
HCT116; [2]
  Percent Cells Remaining: 94%
HCT116; low FKBP12 expression level
  sensitivity to AP23573: relatively resistant
HEC1A
  Percent Cells Remaining: 70%
HT1080; [2]
  Percent Cells Remaining: 37%
HT1080; high FKBP12 expression level
  sensitivity to AP23573: relatively sensitive
MCF7
  Percent Cells Remaining: 55%
MDA-435S
  Percent Cells Remaining: 68%
MDA-453
  Percent Cells Remaining: 58%
MDA-468
  Percent Cells Remaining: 77%
PC3
  Percent Cells Remaining: 51%
SKBR3
  Percent Cells Remaining: 55%
SKOV3
  Percent Cells Remaining: 61%
[1]; HEC1A, BT474, MDA468, DU145, HCT116 (lower FKBP12 expression)
  sensitivity to AP23573: lower levels of sensitivity
[1]; HT1080, PC3, ES2, SKBR3 (relatively high FKBP12 expression)
  sensitivity to AP23573: relatively high levels of sensitivity
sarcoma; Bone Cohort (19)
  CR/PR (complete response / partial response): 3
  PD (progressive disease): 5
sarcoma; Leiomyosarcoma (18)
  CR/PR (complete response / partial response): 0
  PD (progressive disease): 6
sarcoma; Liposarcoma (13)
  CR/PR (complete response / partial response): 0
  PD (progressive disease): 5
sarcoma; Other Sarcoma (20)
  CR/PR (complete response / partial response): 0
  PD (progressive disease): 7
